{
  "source": "paper PMC11481577",
  "about": "“Allosteric coupling of substrate binding and proton translocation in MmpL3 transporter from Mycobacterium tuberculosis” (mBio, 2024)",
  "key": {"MmpL3ΔC D58A [1]": {"target": "T1, MmpL3ΔC D58A (Mycobacterium tuberculosis, UniProt P9WJV5, D58A)", "format": "biochemical"}, "MmpL3ΔC H68A": {"target": "MmpL3ΔC H68A (Mycobacterium tuberculosis, UniProt P9WJV5, H68A)", "format": "biochemical"}, "MmpL3ΔC S66A [2]": {"target": "T2, MmpL3ΔC S66A (Mycobacterium tuberculosis, UniProt P9WJV5, S66A)", "format": "biochemical"}, "MmpL3ΔC D139A [3]": {"target": "T3, MmpL3ΔC D139A (Mycobacterium tuberculosis, UniProt P9WJV5, D139A)", "format": "biochemical"}, "MmpL3ΔC S66A [4]": {"target": "T2, MmpL3ΔC S66A", "format": "biochemical", "remark": "listed apart in the source"}, "MmpL3ΔC [5]": {"target": "T4, MmpL3ΔC (Mycobacterium tuberculosis, UniProt P9WJV5)", "format": "biochemical"}, "MmpL3ΔC [6]": {"target": "T4, MmpL3ΔC", "format": "biochemical", "remark": "listed apart in the source"}, "MmpL3ΔC D58A [7]": {"target": "T1, MmpL3ΔC D58A", "format": "biochemical", "remark": "listed apart in the source"}, "MmpL3ΔC [8]": {"target": "T4, MmpL3ΔC", "format": "biochemical", "remark": "listed apart in the source"}, "MmpL3ΔC D139A [9]": {"target": "T3, MmpL3ΔC D139A", "format": "biochemical", "remark": "listed apart in the source"}, "[10]": {"test_system": "MsmgΔmmpL3/pMVGH1-mmpL3tb (D58A)", "format": "cell-based", "settings": "disc with 5 µg, 7H11-ADC agar, 4 days at 37°C"}},
  "data": [
    {"smiles": "OC[C@H]1O[C@H](O[C@H]2O[C@H](CO)[C@@H](O)[C@H](O)[C@H]2O)[C@H](O)[C@@H](O)[C@@H]1O", "note": "[trehalose]", "values": [
      {"measurement": "Rate of fluorescence change (lipid transport activity)", "setting": "MmpL3ΔC D58A [1]", "result": 7.22, "unit": "RU/s/µM protein"},
      {"measurement": "Rate of fluorescence change (lipid transport activity)", "setting": "MmpL3ΔC H68A", "result": 0.37, "unit": "RU/s/µM protein"},
      {"measurement": "Stimulation of the variant by ligand (in words)", "setting": "MmpL3ΔC S66A [2]", "result": "no significant stimulation"},
      {"measurement": "Rate of fluorescence change (lipid transport activity)", "setting": "MmpL3ΔC D139A [3]", "result": 18.84, "unit": "RU/s/µM protein"},
      {"measurement": "Effect on remaining lipid transfer activity (in words)", "setting": "MmpL3ΔC S66A [4]", "result": "inhibited"},
      {"measurement": "Rate of fluorescence change (lipid transport activity)", "setting": "MmpL3ΔC S66A [4]", "result": 1.20, "unit": "RU/s/µM protein"},
      {"measurement": "Effect on asymmetry of NBD-PE lipid distribution in proteoliposomes (flippase activity)", "setting": "MmpL3ΔC [5]", "result": "unaffected"},
      {"measurement": "Effect on H+ transfer activity (in words)", "setting": "MmpL3ΔC [6]", "result": "weakly"},
      {"measurement": "Effect on H+ transfer activity (in words)", "setting": "MmpL3ΔC D58A [7]", "result": "weakly"},
      {"measurement": "Rate of fluorescence change (lipid transport activity)", "setting": "MmpL3ΔC [8]", "result": 2.96, "unit": "RU/s/µM protein"}
    ]},
    {"smiles": "CCCCCCCCCCCCCCCC(=O)OC[C@H]1O[C@H](O[C@H]2O[C@H](CO)[C@@H](O)[C@H](O)[C@H]2O)[C@H](O)[C@@H](O)[C@@H]1O", "note": "[Tre-C16]", "values": [
      {"measurement": "Rate of fluorescence change (lipid transport activity)", "setting": "MmpL3ΔC D58A [1]", "result": 11.53, "unit": "RU/s/µM protein"},
      {"measurement": "Rate of fluorescence change (lipid transport activity)", "setting": "MmpL3ΔC H68A", "result": -0.62, "unit": "RU/s/µM protein"},
      {"measurement": "Stimulation of the variant by ligand (in words)", "setting": "MmpL3ΔC S66A [2]", "result": "no significant stimulation"},
      {"measurement": "Rate of fluorescence change (lipid transport activity)", "setting": "MmpL3ΔC D139A [3]", "result": 13.43, "unit": "RU/s/µM protein"},
      {"measurement": "Effect on remaining lipid transfer activity (in words)", "setting": "MmpL3ΔC S66A [4]", "result": "inhibited"},
      {"measurement": "Rate of fluorescence change (lipid transport activity)", "setting": "MmpL3ΔC S66A [4]", "result": -0.02, "unit": "RU/s/µM protein"},
      {"measurement": "Effect on H+ transfer activity (in words)", "setting": "MmpL3ΔC D139A [9]", "result": "stimulated by Tre-C16 even more strongly than the parent protein"},
      {"measurement": "Effect on asymmetry of NBD-PE lipid distribution in proteoliposomes (flippase activity)", "setting": "MmpL3ΔC [5]", "result": "unaffected"},
      {"measurement": "Effect on H+ transfer activity (in words)", "setting": "MmpL3ΔC [6]", "result": "strongly stimulated"},
      {"measurement": "Effect on H+ transfer activity (in words)", "setting": "MmpL3ΔC D58A [7]", "result": "stimulated"},
      {"measurement": "Rate of fluorescence change (lipid transport activity)", "setting": "MmpL3ΔC [8]", "result": 1.32, "unit": "RU/s/µM protein"}
    ]},
    {"smiles": "CC(C)=CCC/C(C)=C/CNCCNC1C2CC3CC(C2)CC1C3", "note": "(centres unmarked) [SQ109]", "values": [
      {"measurement": "Rate of fluorescence change (lipid transport activity)", "setting": "MmpL3ΔC D58A [1]", "result": 10.7, "unit": "RU/s/µM protein"},
      {"measurement": "Susceptibility to growth inhibition (zone of inhibition) compared with cells producing WT Mtb MmpL3", "setting": "[10]", "result": "less susceptible"},
      {"measurement": "Rate of fluorescence change (lipid transport activity)", "setting": "MmpL3ΔC H68A", "result": -0.12, "unit": "RU/s/µM protein"},
      {"measurement": "Rate of fluorescence change (lipid transport activity)", "setting": "MmpL3ΔC D139A [3]", "result": 2.52, "unit": "RU/s/µM protein"},
      {"measurement": "Effect on remaining lipid transfer activity (in words)", "setting": "MmpL3ΔC S66A [4]", "result": "inhibited"},
      {"measurement": "Rate of fluorescence change (lipid transport activity)", "setting": "MmpL3ΔC S66A [4]", "result": -0.15, "unit": "RU/s/µM protein"},
      {"measurement": "Effect on asymmetry of NBD-PE lipid distribution in proteoliposomes (flippase activity)", "setting": "MmpL3ΔC [5]", "result": "unaffected"},
      {"measurement": "Rate of fluorescence change (lipid transport activity)", "setting": "MmpL3ΔC [8]", "result": 2.04, "unit": "RU/s/µM protein"}
    ]}
  ]
}
